This passage reports IC50 results from patent publication US20250145665A1, “MACROCYCLIC PEPTIDES USEFUL AS MODULATORS OF TNF ALPHA” (Bristol-Myers Squibb Company, priority 2023, published 2025).

A word on the pIC50: it is −log10 of the IC50, conventionally taken in molar units.

pIC50: −log10 of the molar value. Starred links: 1 amine or outer side, 2 acyl side, 3 side chain; linkers in the order of their positions; H or OH if unused. Positions of bridges follow the written chain, without caps; N, C: chain ends. Non-standard residues stand in square brackets, D forms with d. Residues, ends and D or L forms follow the SMILES beside them. *: point of attachment. Bip(4'-NHCO-C6H4-3-CH2COOH) = N[C@@H](Cc1ccc(-c2ccc(NC(=O)c3cccc(CC(=O)O)c3)cc2)cc1)C(=O)O; Bip(4'-NHCO-C6H4-4-CH2COOH) = N[C@@H](Cc1ccc(-c2ccc(NC(=O)c3ccc(CC(=O)O)cc3)cc2)cc1)C(=O)O; Bip(4'-(3-HOOC-benzamido)) = N[C@@H](Cc1ccc(-c2ccc(NC(=O)c3cccc(C(=O)O)c3)cc2)cc1)C(=O)O; dArg(ω-(2S)-2,3-diOHpropyl) = N=C(NCCC[C@@H](N)C(=O)O)NC[C@H](O)CO; Bip(4'-NH) = O=C([C@H](Cc1ccc(-c2ccc(N[*:3])cc2)cc1)N[*:1])[*:2]; Bip(4'-CONHMe) = CNC(=O)c1ccc(-c2ccc(C[C@H](N)C(=O)O)cc2)cc1; Bip(4'-COOH) = N[C@@H](Cc1ccc(-c2ccc(C(=O)O)cc2)cc1)C(=O)O; Bip(4'-NHAc) = CC(=O)Nc1ccc(-c2ccc(C[C@H](N)C(=O)O)cc2)cc1; Indole3carbonyl(1-CH2COOH) = O=C(O)Cn1cc(C(=O)*)c2ccccc21; dArg(ω-Bn) = N=C(NCCC[C@@H](N)C(=O)O)NCc1ccccc1; Ala(morpholin-4-yl) = N[C@@H](CN1CCOCC1)C(=O)O; Benzoyl(3-OCH2COOH) = O=C(O)COc1cccc(C(=O)*)c1; Phe(3-CONH2) = NC(=O)c1cccc(C[C@H](N)C(=O)O)c1; Bip = N[C@@H](Cc1ccc(-c2ccccc2)cc1)C(=O)O; Ala(2-furyl) = N[C@@H](Cc1ccco1)C(=O)O; 2Pal = N[C@@H](Cc1ccccn1)C(=O)O; Cha = N[C@@H](CC1CCCCC1)C(=O)O; Chg = N[C@H](C(=O)O)C1CCCCC1; Sar = CNCC(=O)O

The first assay deals with TNFα (Homo sapiens, UniProt P01375). The assay can be described thus: TNF-Induced HEK-Blue Assay. The assay is classed as cell-based.
TNFα, sequence (P01375 77-233 limits assumed): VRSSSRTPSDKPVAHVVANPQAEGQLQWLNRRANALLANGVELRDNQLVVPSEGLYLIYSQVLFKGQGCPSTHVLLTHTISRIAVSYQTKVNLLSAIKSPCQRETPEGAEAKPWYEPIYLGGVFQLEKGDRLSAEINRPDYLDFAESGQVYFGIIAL
Conditions: not given
With `CC(C)C[C@@H]1NC(=O)[C@H](Cc2ccc(O)cc2)NC(=O)[C@H](C(C)C)NC(=O)[C@@H]2CCCN2C(=O)[C@H](C(C)C)NC(=O)[C@@H](CCCNC(=N)NCc2ccccc2)NC(=O)[C@H](CC(=O)O)NC(=O)[C@@H]2CCCN2C(=O)CN(C)C(=O)[C@H](Cc2ccc(-c3ccc(NC(=O)c4cn(CC(=O)O)c5ccccc45)cc3)cc2)NC(=O)[C@H](Cc2ccc(-c3ccccc3)cc2)NC(=O)[C@H](CN2CCOCC2)NC(=O)CSC[C@@H](C(=O)NCC(N)=O)NC1=O` [Example 531] ({CH2CO}-[Ala(morpholin-4-yl)][Bip][Bip(4'-NH)](Indole3carbonyl(1-CH2COOH))[Sar]PD[dArg(ω-Bn)]VPVYLCG-NH2; thioether N-13), the negative-log IC50 (pIC50) was over 7.30.
Take `CC[C@H](C)[C@@H]1NC(=O)[C@@H](CCCNC(=N)NCc2ccccc2)NC(=O)[C@H](CC(=O)O)NC(=O)[C@@H]2CCCN2C(=O)CN(C)C(=O)[C@H](Cc2ccc(-c3ccc(NC(=O)c4cn(CC(=O)O)c5ccccc45)cc3)cc2)NC(=O)[C@H](Cc2ccc(-c3ccccc3)cc2)NC(=O)[C@H](CN2CCOCC2)NC(=O)CSC[C@@H](C(=O)NCC(N)=O)NC(=O)[C@H](CC(C)C)NC(=O)[C@H](Cc2cnc[nH]2)NC(=O)[C@H](C(C)C)NC(=O)[C@@H]2CCCN2C1=O` [Example 533] ({CH2CO}-[Ala(morpholin-4-yl)][Bip][Bip(4'-NH)](Indole3carbonyl(1-CH2COOH))[Sar]PD[dArg(ω-Bn)]IPVHLCG-NH2; thioether N-13): the pIC50 is over 7.30.
Take `CC(C)C[C@@H]1NC(=O)[C@H](Cc2cccc(C(N)=O)c2)NC(=O)[C@H](C(C)C)NC(=O)[C@@H]2CCCN2C(=O)[C@H](C(C)C)NC(=O)[C@@H](CCCNC(=N)NCc2ccccc2)NC(=O)[C@H](CC(=O)O)NC(=O)[C@@H]2CCCN2C(=O)CN(C)C(=O)[C@H](Cc2ccc(-c3ccc(NC(=O)c4cn(CC(=O)O)c5ccccc45)cc3)cc2)NC(=O)[C@H](Cc2ccc(-c3ccccc3)cc2)NC(=O)[C@H](CN2CCOCC2)NC(=O)CSC[C@@H](C(=O)NCC(N)=O)NC1=O` [Example 535] ({CH2CO}-[Ala(morpholin-4-yl)][Bip][Bip(4'-NH)](Indole3carbonyl(1-CH2COOH))[Sar]PD[dArg(ω-Bn)]VPV[Phe(3-CONH2)]LCG-NH2; thioether N-13): the negative logarithm of the IC50 (pIC50) is over 7.30.
`CC(C)C[C@@H]1NC(=O)[C@H](CCCNC(=N)N)NC(=O)[C@H](C(C)C)NC(=O)[C@@H]2CCCN2C(=O)[C@H](C(C)C)NC(=O)[C@@H](CCCNC(=N)NC[C@H](O)CO)NC(=O)[C@H](CC(=O)O)NC(=O)[C@@H]2CCCN2C(=O)CN(C)C(=O)[C@H](Cc2ccc(-c3ccc(NC(=O)c4cn(CC(=O)O)c5ccccc45)cc3)cc2)NC(=O)[C@H](Cc2ccc(-c3ccccc3)cc2)NC(=O)[C@H](CN2CCOCC2)NC(=O)CSC[C@@H](C(=O)NCC(N)=O)NC1=O` [Example 540] ({CH2CO}-[Ala(morpholin-4-yl)][Bip][Bip(4'-NH)](Indole3carbonyl(1-CH2COOH))[Sar]PD[dArg(ω-(2S)-2,3-diOHpropyl)]VPVRLCG-NH2; thioether N-13): the negative-log IC50 (pIC50) is over 7.30.

The assay is the same for the next values; noted with them: HEK-Blue-CD40L cells, NF-kB-driven secreted alkaline phosphatase reporter; TNFα 0.5 ng/ml; 18 h; read-out: TNF induced HEK-Blue assay IC50 value.
For the molecule `CC(=O)Nc1ccc(-c2ccc(C[C@@H]3NC(=O)[C@H](Cc4ccc(-c5ccccc5)cc4)NC(=O)[C@H](CN4CCOCC4)NC(=O)CSC[C@@H](C(=O)NCC(N)=O)NC(=O)[C@H](CC(C)C)NC(=O)[C@H](Cc4cnc[nH]4)NC(=O)[C@H](C(C)C)NC(=O)[C@@H]4CCCN4C(=O)[C@H](C(C)C)NC(=O)[C@@H](CCCNC(=N)N)NC(=O)[C@H](CC(=O)O)NC(=O)[C@H](Cc4ccco4)NC(=O)CN(C)C3=O)cc2)cc1` [Example 519] ({CH2CO}-[Ala(morpholin-4-yl)][Bip][Bip(4'-NHAc)][Sar][Ala(2-furyl)]D[dR]VPVHLCG-NH2; thioether N-13), the pIC50 is 6.70 to 7.30.
Take `CC(=O)Nc1ccc(-c2ccc(C[C@@H]3NC(=O)[C@H](Cc4ccc(-c5ccc(C(=O)O)cc5)cc4)NC(=O)[C@H](CN4CCOCC4)NC(=O)CSC[C@@H](C(=O)NCC(N)=O)NC(=O)[C@H](CC(C)C)NC(=O)[C@H](Cc4cnc[nH]4)NC(=O)[C@H](C(C)C)NC(=O)[C@@H]4CCCN4C(=O)[C@H](C(C)C)NC(=O)[C@@H](CCCNC(=N)N)NC(=O)[C@H](CC(=O)O)NC(=O)[C@H](Cc4ccco4)NC(=O)CN(C)C3=O)cc2)cc1` [Example 520] ({CH2CO}-[Ala(morpholin-4-yl)][Bip(4'-COOH)][Bip(4'-NHAc)][Sar][Ala(2-furyl)]D[dR]VPVHLCG-NH2; thioether N-13): the pIC50 was over 7.30.
Same read-out and setting: the result for `CC[C@H](C)[C@@H]1NC(=O)[C@@H](CCCNC(=N)N)NC(=O)[C@H](CC(=O)O)NC(=O)[C@H](Cc2ccccn2)NC(=O)CN(C)C(=O)[C@H](Cc2ccc(-c3ccc(NC(C)=O)cc3)cc2)NC(=O)[C@H](Cc2ccc(-c3ccccc3)cc2)NC(=O)[C@H](CN2CCOCC2)NC(=O)CSC[C@@H](C(=O)NCC(N)=O)NC(=O)[C@H](CC(C)C)NC(=O)[C@H](Cc2cnc[nH]2)NC(=O)[C@H](C(C)C)NC(=O)[C@@H]2CCCN2C1=O` [Example 522] ({CH2CO}-[Ala(morpholin-4-yl)][Bip][Bip(4'-NHAc)][Sar][2Pal]D[dR]IPVHLCG-NH2; thioether N-13) reads over 7.30; that for `CC(=O)Nc1ccc(-c2ccc(C[C@@H]3NC(=O)[C@H](Cc4ccc(-c5ccccc5)cc4)NC(=O)[C@H](CN4CCOCC4)NC(=O)CSC[C@@H](C(=O)NCC(N)=O)NC(=O)[C@H](CC(C)C)NC(=O)[C@H](Cc4c[nH]cn4)NC(=O)[C@H](C4CCCCC4)NC(=O)[C@@H]4CCCN4C(=O)[C@H](C(C)C)NC(=O)[C@@H](CCCNC(=N)N)NC(=O)[C@H](CC(=O)O)NC(=O)[C@H](Cc4ccco4)NC(=O)CN(C)C3=O)cc2)cc1` [Example 524] ({CH2CO}-[Ala(morpholin-4-yl)][Bip][Bip(4'-NHAc)][Sar][Ala(2-furyl)]D[dR]VP[Chg]HLCG-NH2; thioether N-13), 6.70 to 7.30.
In the case of `CC(C)C[C@@H]1NC(=O)[C@H](Cc2cnc[nH]2)NC(=O)[C@H](C(C)C)NC(=O)[C@@H]2CCCN2C(=O)[C@H](C(C)C)NC(=O)[C@@H](CCCNC(=N)N)NC(=O)[C@H](CC(=O)O)NC(=O)[C@H](Cc2cnc[nH]2)NC(=O)CN(C)C(=O)[C@H](Cc2ccc(-c3ccc(NC(=O)c4ccc(CC(=O)O)cc4)cc3)cc2)NC(=O)[C@H](Cc2ccc(-c3ccccc3)cc2)NC(=O)[C@H](CC2CCCCC2)NC(=O)CSC[C@@H](C(=O)NCC(N)=O)NC1=O` [Example 526] ({CH2CO}-[Cha][Bip][Bip(4'-NHCO-C6H4-4-CH2COOH)][Sar]HD[dR]VPVHLCG-NH2; thioether N-13), the negative logarithm of the IC50 (pIC50) is over 7.30.
Take `CC[C@H](C)[C@@H]1NC(=O)[C@@H](CCCNC(=N)N)NC(=O)[C@H](CC(=O)O)NC(=O)[C@H](Cc2cnc[nH]2)NC(=O)CN(C)C(=O)[C@H](Cc2ccc(-c3ccc(NC(=O)c4cccc(CC(=O)O)c4)cc3)cc2)NC(=O)[C@H](Cc2ccc(-c3ccc(C(=O)NC)cc3)cc2)NC(=O)[C@H](CC2CCCCC2)NC(=O)CSC[C@@H](C(=O)NCC(N)=O)NC(=O)[C@H](CC(C)C)NC(=O)[C@H](Cc2cnc[nH]2)NC(=O)[C@H](C(C)C)NC(=O)[C@@H]2CCCN2C1=O` [Example 527] ({CH2CO}-[Cha][Bip(4'-CONHMe)][Bip(4'-NHCO-C6H4-3-CH2COOH)][Sar]HD[dR]IPVHLCG-NH2; thioether N-13): the pIC50 is over 7.30.
In the case of `CC[C@H](C)[C@@H]1NC(=O)[C@@H](CCCNC(=N)N)NC(=O)[C@H](CC(=O)O)NC(=O)[C@H](Cc2cnc[nH]2)NC(=O)CN(C)C(=O)[C@H](Cc2ccc(-c3ccc(NC(=O)c4ccc(CC(=O)O)cc4)cc3)cc2)NC(=O)[C@H](Cc2ccc(-c3ccc(C(=O)NC)cc3)cc2)NC(=O)[C@H](CC2CCCCC2)NC(=O)CSC[C@@H](C(=O)NCC(N)=O)NC(=O)[C@H](CC(C)C)NC(=O)[C@H](Cc2cnc[nH]2)NC(=O)[C@H](C(C)C)NC(=O)[C@@H]2CCCN2C1=O` [Example 528] ({CH2CO}-[Cha][Bip(4'-CONHMe)][Bip(4'-NHCO-C6H4-4-CH2COOH)][Sar]HD[dR]IPVHLCG-NH2; thioether N-13), the negative logarithm of the IC50 (pIC50) was over 7.30.
For the molecule `CC[C@H](C)[C@@H]1NC(=O)[C@@H](CCCNC(=N)N)NC(=O)[C@H](CC(=O)O)NC(=O)[C@H](Cc2cnc[nH]2)NC(=O)CN(C)C(=O)[C@H](Cc2ccc(-c3ccc(NC(=O)c4cccc(C(=O)O)c4)cc3)cc2)NC(=O)[C@H](Cc2ccc(-c3ccc(C(=O)O)cc3)cc2)NC(=O)[C@H](CC2CCCCC2)NC(=O)CSC[C@@H](C(=O)NCC(N)=O)NC(=O)[C@H](CC(C)C)NC(=O)[C@H](Cc2cnc[nH]2)NC(=O)[C@H](C(C)C)NC(=O)[C@@H]2CCCN2C1=O` [Example 530] ({CH2CO}-[Cha][Bip(4'-COOH)][Bip(4'-(3-HOOC-benzamido))][Sar]HD[dR]IPVHLCG-NH2; thioether N-13), the pIC50 is over 7.30.
Take `CC(C)C[C@@H]1NC(=O)[C@H](CCCNC(=N)N)NC(=O)[C@H](C(C)C)NC(=O)[C@@H]2CCCN2C(=O)[C@H](C(C)C)NC(=O)[C@@H](CCCNC(=N)NC[C@H](O)CO)NC(=O)[C@H](CC(=O)O)NC(=O)[C@@H]2CCCN2C(=O)CN(C)C(=O)[C@H](Cc2ccc(-c3ccc(NC(=O)c4cccc(CC(=O)O)c4)cc3)cc2)NC(=O)[C@H](Cc2ccc(-c3ccccc3)cc2)NC(=O)[C@H](CN2CCOCC2)NC(=O)CSC[C@@H](C(=O)NCC(N)=O)NC1=O` [Example 537] ({CH2CO}-[Ala(morpholin-4-yl)][Bip][Bip(4'-NHCO-C6H4-3-CH2COOH)][Sar]PD[dArg(ω-(2S)-2,3-diOHpropyl)]VPVRLCG-NH2; thioether N-13): the pIC50 is 6.70 to 7.30.
As to `CC(C)C[C@@H]1NC(=O)[C@H](CCCNC(=N)N)NC(=O)[C@H](C(C)C)NC(=O)[C@@H]2CCCN2C(=O)[C@H](C(C)C)NC(=O)[C@@H](CCCNC(=N)NC[C@H](O)CO)NC(=O)[C@H](CC(=O)O)NC(=O)[C@@H]2CCCN2C(=O)CN(C)C(=O)[C@H](Cc2ccc(-c3ccc(NC(=O)c4cccc(OCC(=O)O)c4)cc3)cc2)NC(=O)[C@H](Cc2ccc(-c3ccccc3)cc2)NC(=O)[C@H](CN2CCOCC2)NC(=O)CSC[C@@H](C(=O)NCC(N)=O)NC1=O` [Example 538] ({CH2CO}-[Ala(morpholin-4-yl)][Bip][Bip(4'-NH)](Benzoyl(3-OCH2COOH))[Sar]PD[dArg(ω-(2S)-2,3-diOHpropyl)]VPVRLCG-NH2; thioether N-13), the negative-log IC50 (pIC50) was 5.70 to 6.70.
